# Results published in article PMC4536076, “Chemical Library Screening and Structure-Function Relationship Studies Identify Bisacodyl as a Potent and Selective Cytotoxic Agent Towards Quiescent Human Glioblastoma Tumor Stem-Like Cells” (PLoS ONE, 2015).
# Where a name gives a salt, the structure may show the parent alone.
# System: quiescent TG1 GSCs
# Settings: primary screen, 50 μM, 24 h
# Method: Proliferating or quiescent TG1 GSCs were seeded (30 000 and 40 000 viable cells/well, respectively) into 96-well opaque bottom plates (Greiner) with the Biomek FX robot (Beckman Coulter). Each compound from the Prestwick Library was then added (final concentration: 50 μM; 1% DMSO). Each molecule was tested once. Negative control wells (12/96 per assay plate) contained cells treated with 1% DMSO (final concentration) and positive control wells (4/96 per assay plate) contained cells treated with the fungal toxin ophiobolin A (Sigma Aldrich) at 50 μM with 1% DMSO. […] Luminescence in each well was measured with the Victor3 plate reader (PerkinElmer).
# Relative ATP levels in each well were determined by calculating the percentage of luminescent signal in the well with respect to the average signal measured in negative control wells.
# Primary screen hits were further tested in duplicate, at two concentrations (50 and 5 μM) on proliferating and quiescent TG1 GSCs. Cell plating and treatment with compounds were as for the primary screen. Hit selection/confirmation criteria for quiescent cells were as described above.
Compound,Activity on quiescent TG1 GSCs (hit compounds reducing ATP levels),Activity on quiescent TG1 CSCs (hit compounds increasing ATP levels)
CCCCCCC[N+](CC)(CC)CCCCc1ccc(Cl)cc1.Cc1ccc(S(=O)(=O)[O-])cc1 [Clofilium tosylate],yes,–
CC[C@H](c1ccc(O)cc1)[C@@H](CC)c1ccc(O)cc1 [Hexestrol],yes,–
CC(C)C(=O)Nc1ccc([N+](=O)[O-])c(C(F)(F)F)c1 [Flutamide],yes,–
Cc1cc(/C=C/c2ccc3cc(N(C)C)ccc3[n+]2C)c(C)n1-c1ccccc1.Cc1cc(/C=C/c2ccc3cc(N(C)C)ccc3[n+]2C)c(C)n1-c1ccccc1.O=C([O-])c1cc2ccccc2c(Cc2c(O)c(C(=O)[O-])cc3ccccc23)c1O [Pyvinium pamoate],yes,–
CCCCCC[C@H]1C(=O)O[C@H](C)[C@H](NC(=O)c2cccc(NC=O)c2O)C(=O)O[C@@H](C)[C@@H]1OC(=O)CC(C)C [Antimycin A],yes,–
O=C(O)c1ccccc1Nc1cccc(C(F)(F)F)c1 [Flufenamic acid],yes,–
CCc1cc(C(N)=S)ccn1 [Ethionamide],–,yes
COc1cc2nc(N3CCN(C(=O)C4COc5ccccc5O4)CC3)nc(N)c2cc1OC (stereo not shown) [Doxazosin mesylate],yes,–
C[C@]12CC[C@H]3[C@@H](CC[C@]4(O)C[C@@H](O)CC[C@]34C=O)[C@@]1(O)CC[C@@H]2C1=CC(=O)OC1 [Strophanthidin],yes,–
CC[C@H](C)C(=O)O[C@H]1C[C@@H](C)C=C2C=C[C@H](C)[C@H](CC[C@@H]3C[C@@H](O)CC(=O)O3)[C@H]21 [Lovastatin],–,yes
Meclocycline sulfosalicylate,yes,–
NC[C@H]1CC[C@H](C(=O)O)CC1 [Tranexamic acid],–,yes
CO[C@H]1/C=C/O[C@@]2(C)Oc3c(C)c(O)c4c(O)c(c(/C=N/N5CCN(C)CC5)c(O)c4c3C2=O)NC(=O)/C(C)=C\C=C\[C@H](C)[C@H](O)[C@@H](C)[C@@H](O)[C@@H](C)[C@H](OC(C)=O)[C@@H]1C [Rifampicin],–,yes
c1ccc2c(c1)OCC(C1=NCCN1)O2 (stereo not shown) [Idazoxan hydrochloride],–,yes
Cc1c(Cl)cccc1Nc1ccccc1C(=O)O [Tolfenamic acid],yes,–
COC(=O)[C@H]1[C@H]2C[C@@H]3c4[nH]c5cc(OC)ccc5c4CCN3C[C@H]2C[C@@H](OC(=O)/C=C/c2cc(OC)c(OC)c(OC)c2)[C@@H]1OC [Rescinnamin],yes,–
Fc1ccc(C(c2ccc(F)cc2)N2CCN(C/C=C/c3ccccc3)CC2)cc1 [Flunarizine dihydrochloride],yes,–
O=C(Nc1ccc([N+](=O)[O-])cc1Cl)c1cc(Cl)ccc1O [Niclosamide],yes,–
Clc1ccc(COC(Cn2ccnc2)c2ccc(Cl)cc2Cl)cc1 (stereo not shown) [Econazole nitrate],yes,–
CCCCCN(CCCCC)C(=O)C(CCC(=O)[O-])NC(=O)c1ccc(Cl)c(Cl)c1.[Na+] (stereo not shown) [Lorglumide sodium salt],–,yes
CCCCN(CCCC)CCC(O)c1cc2c(Cl)cc(Cl)cc2c2cc(C(F)(F)F)ccc12 (stereo not shown) [Halofantrine hydrochloride],yes,–
CC[C@@]1([C@H]2O[C@H]([C@H]3O[C@@](O)(CO)[C@H](C)C[C@@H]3C)C[C@H]2C)CC[C@H]([C@@]2(C)CC[C@]3(C[C@H](O)[C@@H](C)[C@@H]([C@H](C)[C@H](OC)[C@@H](C)C(=O)[O-])O3)O2)O1.[Na+] [Monensin sodium salt],yes,–
